Results reported in US7402600B2, “Nitroderivatives of cardiovascular agents” (NicOx S.A., priority 1999, dated 2008).
“Also recorded” adds a separate entry of the source. Read-outs that look alike come from different tables or passages of the source.

What was measured:
[1] = Test 4: inhibition of radical production from DPPH; settings: tested substance 100 μM in methanol, 30 minutes, absorbance 517 nm
Description: Test 4 is a colorimetric test which must not be satisfied by the precursor of B or B1 (precursor of the X2 or X2a of the formulas (I) and (II) respectively). The inhibition of the production of radicals from DPPH (2,2-diphenyl-1-picryl-hydrazyl) is described in M. S. Nenseter et Al., Atheroscler. Thromb. 15, 1338-1344, 1995. 100 μM solutions in methanol of the tested substances are prepared, and an aliquot of each of said solutions is added to a DPPH solution in methanol 0.1 M. After having stored the solutions at room temperature away from light for 30 minutes, their absorbances are read at the wave length of 517 nm, together with that of the corresponding DPPH solution at the same concentration. The absorbance decrease with respect to that of the solution of DPPH at the same concentration of the test solutions is determined. The effectiveness of the tested compound in inhibiting formation of radicals by DPPH is expressed by the following formula: (1−AS/AC)×100 wherein AS and AC are respectively the absorbance values of the solution containing the test compound together with DPPH and of the solution containing only DPPH. Test 4 is satisfied when the inhibition is equal or greater than 50%.
Test 4: Inhibition of the Radical Production from DPPH of Some Substances Used as Precursors of B or B1 (Ref. Formulas I and II of the Invention)
The method is based on a calorimetric test in which DPPH (2,2-diphenyl-1-picryl-hydrazyl) is used as the compound-forming radicals (M. S. Nenseter et Al., Atheroscler. Thromb. 15, 1338-1344, 1995).
Solutions in methanol of the tested substances at a final concentration 100 μM are initially prepared. 0.1 ml of each of these solutions are added to aliquots of 1 ml of a methanol solution 0.1 M of DPPH and then the final volume is brought to 1.5 ml. After having stored the solutions at room temperature away from light for 30 minutes, the absorbance at the wave length of 517 nm is read. It is determined the absorbance decrease with respect to the absorbance of a solution containing the same concentration of DPPH.
The efficacy of the test compound to inhibit the production of radicals, or antiradical activity, is expressed by the following formula: (1−AS/AC)×100 wherein AS and AC are, respectively, the absorbance values of the solution containing the test compound together+DPPH and of the solution containing only DPPH.

[2] = tested on: Human endothelial cells of the umbilical vein; experiment: Test 2 (CIP): apoptosis (DNA fragmentation) induced by cumene hydroperoxide in endothelial cells; assay type: cell-based; settings: for activity at 100 µM: Homo sapiens, Endothelial cell, 1 h, read-out: Apoptosis % with respect to the controls treated only with CIP; for inhibition of apoptosis induced by CIP (in words, t Student p<0.01): CIP 5 mM
[3] = tested on: gastrointestinal mucosa; experiment: Test 1 (NEM): gastric tolerability of precursor drugs in rats treated or not with N-ethylmaleimide; settings: rat, in vivo, 24 h
Description: The animals (rats) are distributed in the following groups (no. 10 animals for group):
• 1° group: treatment: only carrier (aqueous suspension 1% w/v of carboxymethylcellulose, dose: 5 ml/Kg when the drug is administered by os, or a physiologic solution when parenterally administered, i.e. by subcutaneous, intraperitoneal, intravenous or intramuscular route), • 2° group: treatment: carrier as above defined+NEM, B) Groups Treated with the Drug: • group I: treatment: carrier+drug, • group II: treatment: carrier+drug+NEM.
The administration routes are those known for the drug, and can be the oral or subcutaneous, intraperitoneal, intravenous or intramuscular route.
(§1) The animals are sacrificed after 24 hours and then one proceeds to the evaluation of the damage to the gastrointestinal mucosa.
Test 1—Experimental Model in Vivo with N-ethylmaleimide (NEM): Study of the Gastric Tolerability of Some Drugs Screened as Precursors of the Compounds of the Invention.
The animals (rats, weight about 200 g) are distributed in the following groups (No. 10 animals for group):
• 1° group: treatment: only carrier (aqueous suspension 1% w/v of carboxymethylcellulose, dose: 5 ml/Kg when the drug is administered by os, physiologic solution when by parenteral route), • 2° group: treatment: carrier+NEM B) Groups Administered with Each Drug: • group I: treatment: carrier+drug, • group II: treatment: carrier+drug+NEM.
The drug is administered one hour later, in suspension in the carrier. Animals are sacrificed after 24 hours and evaluation of the damage to the gastrointestinal mucosa is made by counting the number of rats, inside each group, with lesions to the stomach at a visual inspection. The total number of said rats is then divided by the total number of rats of the group and multiplied by 100.

[4] = tested on: gastric mucosa; experiment: Example F6: gastric tolerability of invention compounds versus precursor drugs, with or without L-NAME; assay type: in vivo, rats
Description: Gastric Tolerability Test of the Compounds According to the Invention in the Confront of the Corresponding Precursor Drugs in Conditions of Endothelial Dysfunctions Induced by L-NAME (N^w-nitro-L-arginine-methyl ester).

[5] = tested on: gastrointestinal mucosa, GPT, blood pressure; settings: rat, in vivo
Description: The endothelial dysfunction is evaluated by determining the damage to the gastrointestinal mucosa, the hepatic damage and blood hypertension induced by administration of L-NAME.
The animals (rats) are divided in groups as herein below shown. The group receiving L-NAME is treated for 4 weeks with said compound dissolved at a concentration of 400 mg/litre in drinking water. The following groups are constituted (No. 10 animals for group):
(§2) • 1° group: only carrier (aqueous suspension 1% w/v of carboxymethylcellulose, dose: 5 ml/Kg when the drug is administered by os, phisiologic solution when administered parenterally), • 2° group: carrier+L-NAME, B) Groups Administered with the Drug: • 3° group: carrier+drug, • 4° group: carrier+drug+L-NAME.
The administration routes are those known for the drug, and can be the oral or subcutaneous, intraperiteneal, intravenous or intramuscular route. […] The drug is administered once a day for 4 weeks.
At the end of the four weeks treatment access to water is prevented and after 24 hours the animals are sacrificed.
One hour before the sacrifice blood-pressure is determined, and a blood pressure increase is taken as an evaluation of the damage to vascular endothelium. […] The hepatic damage is determined by evaluation of the glutamic-pyruvic transaminase (GPT increase) after sacrifice.
Test 3-Experimental in Vivo Model with N^w-nitro-L-arginine-methyl ester (L-NAME): Gastric Tolerability (Gastrointestinal Damage Incidence), Hepatic (GPT Dosage, Glutamic-pyruvic Transaminase) and Cardiovascular (Blood Pressure) Tolerability of Some Drugs Screened as Precursors of the Compounds of the Invention.
The endothelial dysfunction is evaluated by determining the damage induced by L-NAME administration to the gastrointestinal mucosa, the hepatic damage (GPT increase), and the vascular endothelium or cardiovascular damage as blood hypertension.
The animals (rats, average weight 200 g) are divided in groups as herein below described. The group receiving L-NAME is treated for 4 weeks with said compound dissolved at the concentration of 400 mg/litre in drinking water. The following groups (No. 10 animals for group) are constituted:
as §2, with “group: treatment:” for “group:”, “physiologic” for “phisiologic”, “by parenteral route),” for “administered parenterally),”, “Treated” for “Administered”
Each drug is administered once a day for 4 weeks.
At the end of the four weeks access to water is prevented and after 24 hours the animals are sacrificed.
One hour before the sacrifice blood pressure is determined and a blood pressure increase is taken as an indication of a damage being occurred to vascular endothelium.
The hepatic damage is determined by evaluation after the sacrifice of the glutamic-pyruvic transaminase (GPT increase).
The % gastric lesions have been determined as in Test 1.

[6] = in vivo; settings: rat, in vivo, po
Description: as §1

[7] = drug 10^-4 M, CIP 5 mM for one hour, DNA fragmentation
[8] = rats, dose and route as in the column beside (higher doses than in L-NAME animals)

Structure (SMILES): O=C1NC(C(=O)O)CS1 (stereo not shown) [2-oxo-4-thiazolidin carboxylic acid]
- % inhibition radical production from DPPH [1]: 0%

Structure (SMILES): Nc1nc2c(ncn2COCCO)c(=O)[nH]1 [Aciclovir]
- activity at 100 µM [2, 7]: 95%
- inhibition of apoptosis induced by CIP (in words, t Student p<0.01) ([2]; drug 10^-4 M): do not significantly inhibit apoptosis

Structure (SMILES): NCCCC(O)(P(=O)(O)O)P(=O)(O)O [Alendronate]
- Gastro-enteropathy (% incidence) without NEM [3]: 0%
- inhibition of apoptosis induced by CIP (in words, t Student p<0.01) ([2]; drug 10^-4 M): do not significantly inhibit apoptosis
- % gastropathy, animals not treated with L-NAME ([4]; rat, in vivo, 4 weeks): 90%
- % gastropathy, animals treated with L-NAME ([4]; rat, in vivo, 4 weeks): 70%

Structure (SMILES): CC1(C)S[C@@H]2[C@H](NC(=O)[C@H](N)c3ccccc3)C(=O)N2[C@H]1C(=O)O [Ampicilline]
- activity at 100 µM [2, 7]: 94%
- inhibition of apoptosis induced by CIP (in words, t Student p<0.01) ([2]; drug 10^-4 M): do not significantly inhibit apoptosis

Structure (SMILES): O=C(O)COCCN1CCN(C(c2ccccc2)c2ccc(Cl)cc2)CC1 (stereo not shown) [Cetirizine]
- activity at 100 µM [2, 7]: 115%
- inhibition of apoptosis induced by CIP (in words, t Student p<0.01) ([2]; drug 10^-4 M): do not significantly inhibit apoptosis

Structure (SMILES): N[C@@H](CS)C(=O)O [Cisteine]
- % inhibition radical production from DPPH [1]: 100%

Structure (SMILES): COC(=O)[C@H](c1ccccc1Cl)N1CCc2sccc2C1 [Clopidogrel]
- activity at 100 µM [2, 7]: 110%
- inhibition of apoptosis induced by CIP (in words, t Student p<0.01) ([2]; drug 10^-4 M): do not significantly inhibit apoptosis

Structure (SMILES): O=C(O)Cc1ccccc1Nc1c(Cl)cccc1Cl [Diclofenac]
- % gastropathy, animals not treated with L-NAME ([4]; rat, in vivo, 4 weeks): 70%
- % gastropathy, animals treated with L-NAME ([4]; rat, in vivo, 4 weeks): 100%

Structure (SMILES): Cn1c(=O)c2c(ncn2CC(O)CO)n(C)c1=O (stereo not shown) [Diphylline]
- inhibition of apoptosis induced by CIP (in words, t Student p<0.01) ([2]; drug 10^-4 M): do not significantly inhibit apoptosis
- Apoptosis % with respect to the controls treated only with CIP [2, 7]: 95%

Structure (SMILES): COc1cccc2c1C(=O)c1c(O)c3c(c(O)c1C2=O)C[C@@](O)(C(=O)CO)C[C@@H]3O[C@H]1C[C@H](N)[C@H](O)[C@H](C)O1 [Doxorubicin]
- GPT % without L-NAME [5]: 195%
- Gastroenteropathy % without L-NAME ([5]; 4 weeks): 30%

Structure (SMILES): CCOC(=O)[C@H](CCc1ccccc1)N[C@@H](C)C(=O)N1CCC[C@H]1C(=O)O [Enalapril]
- activity at 100 µM [2, 7]: 80%
- inhibition of apoptosis induced by CIP (in words, t Student p<0.01) ([2]; drug 10^-4 M): do not significantly inhibit apoptosis

Structure (SMILES): O=C(Cc1ccccc1Nc1c(Cl)cccc1Cl)NC(Cc1c[nH]cn1)C(=O)OCCCCO[N+](=O)[O-] (stereo not shown) [Example 4, [2-[(2,6-dichlorophenyl)amino]-benzeneacetyloxy]-(L)-histidine 4-(nitroxy)butyl ester]
- % gastropathy, animals treated with L-NAME ([4]; rats, L-NAME): 0%
- % gastropathy, animals not treated with L-NAME [4, 8]: 0%

Structure (SMILES): O=C(CCC(=O)OCCCCO[N+](=O)[O-])Nc1c2c(nc3ccccc13)CCCC2 [Example 5]
- % gastropathy, animals treated with L-NAME ([4]; rats, L-NAME): 0%
- % gastropathy, animals not treated with L-NAME [4, 8]: 20%

Structure (SMILES): O=C(CCC(=O)OCCCCO[N+](=O)[O-])NCCCC(O)(P(=O)(O)O)P(=O)(O)O [Example 6, [4-amino-[4-oxo-(4-nitroxybutyloxy)butanoyl]-1-hyroxybutyliden] biphosphonic acid]
- % gastropathy, animals treated with L-NAME ([4]; rats, L-NAME): 10%
- % gastropathy, animals not treated with L-NAME [4, 8]: 20%

Structure (SMILES): Nc1c(Br)cc(Br)cc1CNC1CCC(OC(=O)CCC(=O)OCCCCO[N+](=O)[O-])CC1 (stereo not shown) [Example 7, [4-oxo-(4-nitroxybutyloxy)butanoyl4-(2-amino-3,5-dibromophenyl)-methylamino] cyclohexanol ester]
- % gastropathy, animals treated with L-NAME ([4]; rats, L-NAME): 0%
- % gastropathy, animals not treated with L-NAME [4, 8]: 10%

Structure (SMILES): COc1cc(/C=C/C(=O)O)ccc1O [Ferulic acid]
- % inhibition radical production from DPPH [1]: 100%

Structure (SMILES): O=C(O)c1cc(O)ccc1O [Gentisic acid]
- % inhibition radical production from DPPH [1]: 80%

Structure (SMILES): COc1ccc2c(c1)c(CC(=O)O)c(C)n2C(=O)c1ccc(Cl)cc1 [Indomethacin]
- Gastro-enteropathy (% incidence) without NEM [3]: 0%
- inhibition of apoptosis induced by CIP (in words, t Student p<0.01) ([2]; drug 10^-4 M): not significantly different with respect to that of the controls
- inhibition of apoptosis induced by CIP (in words, t Student p<0.01) ([2]; drug 10^-4 M, listed as indomethacin): do not significantly inhibit apoptosis
- MTD at 24 h [6]: 7.5 mg/kg

Structure (SMILES): Nc1ccc(O)c(C(=O)O)c1 [Mesalamine]
- Gastro-enteropathy (% incidence) without NEM [3]: 0%
- inhibition of apoptosis induced by CIP (in words, t Student p<0.01) ([2]; drug 10^-4 M): inhibit apoptosis; also recorded: inhibits the apoptosis induced by CIP

Structure (SMILES): CC(=O)N[C@@H](CS)C(=O)O [N-acetylcisteine]
- % inhibition radical production from DPPH ([1]; listed as N-acetylcysteine): 100%

Structure (SMILES): NC(=O)c1cccnc1 [Nicotinamide]
- inhibition of apoptosis induced by CIP (in words, t Student p<0.01) ([2]; drug 10^-4 M): do not significantly inhibit apoptosis

Structure (SMILES): CC(=O)Nc1ccc(O)cc1 [Paracetamol]
- inhibition of apoptosis induced by CIP (in words, t Student p<0.01) ([2]; drug 10^-4 M): do not significantly inhibit apoptosis; also recorded: not significantly different with respect to that of the controls

Structure (SMILES): CC(C)(C)NCC(O)c1ccc(O)c(CO)c1 (stereo not shown) [Salbutamol]
- inhibition of apoptosis induced by CIP (in words, t Student p<0.01) ([2]; drug 10^-4 M): do not significantly inhibit apoptosis

Structure (SMILES): CCC(C)(C)C(=O)O[C@H]1C[C@@H](C)C=C2C=C[C@H](C)[C@H](CC[C@@H]3C[C@@H](O)CC(=O)O3)[C@H]21 [Simvastatine]
- activity at 100 µM [2]: 72%
